Data set [1] can be described thus: GO radical scavenging activity (TAC assay). It counts as biochemical. The conditions noted are these: ethanol, absorbance 428 nm. The source says: In an embodiment, the AntiOxCINs antioxidant ranking activity hierarchy was established by in vitro non-cell methods. The selected total antioxidant capacity (TAC) assays (DPPH, ABTS and GO) involved the spectrophotometric measurement of the radical absorbance decrease as a result of an in situ radical deactivation by an antioxidant. Compounds with higher antioxidant activity display lower IC50 values. […] This decrease was attenuated/ameliorated by the increment of the spacer length and/or the introduction of additional hydroxyl group in the aromatic ring.
The radical scavenging activity of AntiOxCINs was evaluated by means of total antioxidant capacity assays based on DPPH., ABTS.^+ and GO. radicals. All these methods involved the spectrophotometric measurement of the absorbance decrease resulting from radical (DPPH., ABTS.^+ or GO.) deactivation with an antioxidant. The results were expressed in IC50, which is defined as the minimum antioxidant concentration necessary to reduce the amount of radical by 50%. Antioxidant assays were performed in a multiplate reader (Powerwave XS Microplate Reader) of Bio-Tech instruments.
In an embodiment, the GO′ scavenging activity was evaluated as follows: solutions of test compounds with concentrations from 5 μM to 75 μM were prepared in ethanol. An ethanolic solution of 5 mM GO′ was prepared and diluted to reach the absorbance of 1.00±0.02 at 428 nm. The addition (20 μL) in triplicate of compound solution to GO. solution (180 μL) was followed by absorbance measurement at 428 nm over 30 minutes, in the dark, at room temperature. […] Dose-response curves were established for the determination of IC50 values. Data are means±SEM of three independent experiments.

Data set [2] in a line: Lipophilic properties by electrochemistry at ITIES (transfer potential). The class given is physicochemical. Conditions: aqueous phase to 1,6-dichlorohexane, DPV, C=0.32 mM. How it is done: In an embodiment, AntiOxCINs lipophilic properties were evaluated at physiological pH by electrochemistry. The used technique is often used to mimic the transfer of ionic drugs through biological membranes as the process occurs at the interface between two immiscible electrolyte solutions (ITIES). The transfer potential (Etr) at which the ionic drug, initially present in the aqueous phase (C=0.32 mM), is transferred to the 1,6-dichlorohexane (DCH) phase is measured by differential pulse voltammetry (DPV). In the ITIES model, the transfer potential (Etr) becomes less positive with the increasing of the drug lipophilic character.
In an embodiment, the electrochemical analytical data was obtained using a computer controlled potentiostat Autolab PGSTAT302N (Metrohm Autolab, Utrecht, Netherlands). Generally, cyclic voltammetry (CV) data was acquired at a scan rate of 50 mVs^−1. Differential pulse voltammetry (DPV) results were acquired at a step potential of 4 mV, pulse amplitude of 50 mV and scan rate of 8 mVs^−1. The electrochemical signals were monitored by the General Purpose Electrochemical System (GPES) version 4.9, software package. All electrochemical experiments were performed at room temperature in an electrochemical cell that was placed in a Faraday cage in order to minimize the contribution of background noise to the analytical signal.
In an embodiment, the process of evaluation of AntiOxCINs redox properties was conducted as follows: stock solutions of each compound (10 mM) were prepared by dissolving the appropriate amount in ethanol. The voltammetric working solutions were prepared in the electrochemical cell, at a final concentration of 0.1 mM. The […] supporting electrolyte was prepared by diluting […] to 100 mL. Voltammetric data was acquired in a three-electrode system consisting of a glassy carbon electrode (GCE, d=2 mm) as working electrode, a counter electrode of platinum wire and a saturated Ag/AgCl reference electrode. In an embodiment, the evaluation of AntiOxCINs lipophilic properties was performed as follows: the electrochemical cell was a four-electrode system with arrays of micro liquid-liquid interfaces (μlTIES) containing two Ag/AgCl reference electrodes and two counter electrodes of Pt, one in each phase. The microporous membrane was sealed with a fluorosilicone sealant (Dow Corning 730) onto a glass cylinder which was filled with 4.0 mL of the aqueous phase, where the aliquots of AntiOxCINs solutions were added. The membrane was then immersed into the organic phase contained in the cell. The organic phase reference solution (a 2 mM BTPPACI+2 mM NaCl aqueous solution) was mechanically stabilized The aqueous supporting electrolyte solution was a Tris-HCl buffer 10 mM pH 7.0.

The subject of data set [3] is rat liver mitochondria (RLM). As to the kind of experiment: Mitochondrial transmembrane electric potential (ΔΨ) of RLM, safranine fluorescence. It counts as biochemical. Here is the method: In an embodiment, and as an example, AntiOxCINs and MitoQ toxicity effects on the mitochondrial bioenergetics, namely on RLM ΔΨ and mitochondrial respiration parameters, were measured. The […] represents the main component of the electrochemical gradient generated by mitochondrial respiration and accounts for more than 90% of the total available energy. For mitochondrial respiration assays, glutamate/malate (for complex I) and succinate (for complex II) were used as substrates. In addition, the mitochondrial oxidative phosphorylation coupling index, known as respiratory control ratio (RCR, state 3/state 4 respiration) and ADP/O index (the coupling between ATP synthesis and oxygen consumption) were also calculated. AntiOxCINs and MitoQ were tested at antioxidant-relevant concentrations, with 10 μM being the highest concentration.
In an embodiment, the evaluation of AntiOxCINs functional mitochondrial toxicity profile was performed in rat liver mitochondria (RLM). […] The protein concentration was determined by the biuret assay using BSA as a standard.
Then, 1 μM FCCP was added at the end of all experiments to depolarize mitochondria. ΔΨ was calculated using a calibration curve obtained when RLM were incubated in a K^+-free reaction medium containing 200 mM sucrose, 1 mM NaH2PO4, 10 mM Tris (pH 7.4) and 10 μM EGTA, supplemented with 0.4 μg valinomicin. […] “Repolarization” corresponded to the recovery of membrane potential after the complete phosphorylation of ADP added. Lag phase reflected the time required to phosphorylate the added ADP. […] Data are means±SEM of five independent experiments.

In data set [1], `CS(=O)(=O)[O-].O=C(/C=C/c1ccc(O)c(O)c1)NCCCCCC[P+](c1ccccc1)(c1ccccc1)c1ccccc1` [AntiOxCIN2, (E)-(6-(3-(3,4-dihydroxyphenyl)prop-2-enamido)hexyl)triphenylphosphonium methanesulfonate] yielded an IC50 of 4.1 µM. Further, the “Etr (transfer potential)” value in data set [2] was determined as 0.396 V. The “ADP-induced depolarization (ΔΨ in - mV)” value in data set [3] (glutamate/malate, 2.5 μM) is 186.2 ± 8.9 mV; in data set [3] (glutamate/malate, 5 μM), 199.2 ± 13.3 mV; in data set [3] (glutamate/malate, 10 μM), 193.3 ± 9.1 mV; in data set [3] (succinate, 2.5 μM), 169.3 ± 4.0 mV; in data set [3] (succinate, 5 μM), 174.9 ± 5.5 mV; in data set [3] (succinate, 10 μM), 178.7 ± 6.3 mV. The “Lag Phase” value worked out at 81.2 ± 7.2 s in data set [3] (glutamate/malate, 2.5 μM); 79.5 ± 7.0 s in data set [3] (glutamate/malate, 5 μM); 88.7 ± 25.1 s in data set [3] (glutamate/malate, 10 μM); 101.2 ± 7.5 s in data set [3] (succinate, 2.5 μM); 64.6 ± 19.4 s in data set [3] (succinate, 5 μM); 46.2 ± 12.4 s in data set [3] (succinate, 10 μM). Besides, the “Maximum potential (ΔΨ in - mV)” value stood at 208.4 ± 10.1 mV in data set [3] (glutamate/malate, 2.5 μM); 214.8 ± 11.7 mV in data set [3] (glutamate/malate, 5 μM); 209.8 ± 9.4 mV in data set [3] (glutamate/malate, 10 μM); 190.5 ± 5.9 mV in data set [3] (succinate, 2.5 μM); 189.7 ± 8.0 mV in data set [3] (succinate, 5 μM); 190.0 ± 6.3 mV in data set [3] (succinate, 10 μM). In addition, the “Repolarization Potential (ΔΨ in - mV)” value is 205.1 ± 9.0 mV in data set [3] (glutamate/malate, 2.5 μM); 214.0 ± 12.5 mV in data set [3] (glutamate/malate, 5 μM); 202.0 ± 8.0 mV in data set [3] (glutamate/malate, 10 μM); 191.5 ± 7.5 mV in data set [3] (succinate, 2.5 μM); 189.5 ± 9.0 mV in data set [3] (succinate, 5 μM); 186.6 ± 7.1 mV in data set [3] (succinate, 10 μM).

The compound `O=C(O)/C=C/c1ccc(O)c(O)c1` [Caffeic acid, caffeic acid, reference compound] displayed an IC50 in data set [1] of 3.4 µM.

On to `CS(=O)(=O)[O-].O=C(/C=C/c1cc(O)c(O)c(O)c1)NCCCCCCCC[P+](c1ccccc1)(c1ccccc1)c1ccccc1` [AntiOxCIN5, (E)-(8-(3-(3,4,5-trihydroxyphenyl)acrylamido)octyl)triphenylphosphonium methanesulfonate], for which inhibition in data set [1] was half-maximal at 2.3 µM (IC50). Also, the “Etr (transfer potential)” value in data set [2] is reported as 0.423 V. Also, the initial slight hyperpolarization in data set [3] (2.5 μM) is listed as 25 mV. Moreover, the “ADP-induced depolarization (ΔΨ in - mV)” value in data set [3] (glutamate/malate, 2.5 μM) was found to be 207.5 ± 6.1 mV; in data set [3] (glutamate/malate, 5 μM), 207.5 ± 5.6 mV; in data set [3] (glutamate/malate, 10 μM), 184.6 ± 18.7 mV; in data set [3] (succinate, 2.5 μM) it was 177.2 ± 7.7 mV; in data set [3] (succinate, 5 μM) it was 173.6 ± 6.8 mV; in data set [3] (succinate, 10 μM), 162.2 ± 7.7 mV. For the same compound, the “Lag Phase” value in data set [3] (glutamate/malate, 2.5 μM) is listed as 74.4 ± 10.7 s; in data set [3] (glutamate/malate, 5 μM), 69.8 ± 13.3 s; in data set [3] (glutamate/malate, 10 μM) it was 53.2 ± 7.6 s; in data set [3] (succinate, 2.5 μM) it was 80.2 ± 11.8 s; in data set [3] (succinate, 5 μM) it was 67.2 ± 13.4 s; in data set [3] (succinate, 10 μM), 58.4 ± 10.2 s. In addition, the “Maximum potential (ΔΨ in - mV)” value worked out at 249.8 ± 5.4 mV in data set [3] (glutamate/malate, 2.5 μM); 244.7 ± 7.0 mV in data set [3] (glutamate/malate, 5 μM); 215.1 ± 22.3 mV in data set [3] (glutamate/malate, 10 μM); 196.2 ± 8.6 mV in data set [3] (succinate, 2.5 μM); 190.1 ± 6.8 mV in data set [3] (succinate, 5 μM); 180.8 ± 4.0 mV in data set [3] (succinate, 10 μM). Moreover, the “Repolarization Potential (ΔΨ in - mV)” value was found to be 244.7 ± 5.9 mV in data set [3] (glutamate/malate, 2.5 μM); 236.5 ± 6.8 mV in data set [3] (glutamate/malate, 5 μM); 199.9 ± 26.0 mV in data set [3] (glutamate/malate, 10 μM); 190.6 ± 7.8 mV in data set [3] (succinate, 2.5 μM); 184.0 ± 7.1 mV in data set [3] (succinate, 5 μM); 168.4 ± 9.3 mV in data set [3] (succinate, 10 μM).

Regarding `CS(=O)(=O)[O-].O=C(/C=C/c1ccc(O)c(O)c1)NCCCCCCCCCC[P+](c1ccccc1)(c1ccccc1)c1ccccc1` [AntiOxCIN6, (E)-(10-(3-(3,4-dihydroxyphenyl)acrylamido)decyl)triphenylphosphonium methanesulfonate], the IC50 in data set [1] is 2.7 µM. Also, in data set [2], the “Etr (transfer potential)” value was 0.291 V. Besides, the initial slight hyperpolarization in data set [3] (2.5 μM) is 10 mV. Moreover, in data set [3] (AntiOxCIN6 above 5 μM, AntiOxCIN7 10 μM), the “ΔΨ in succinate-energized mitochondria” value was “significant decrease of ΔΨ”. For the same compound, the “ADP-induced depolarization (ΔΨ in - mV)” value is on record as 202.5 ± 5.7 mV in data set [3] (glutamate/malate, 2.5 μM); 197.9 ± 5.0 mV in data set [3] (glutamate/malate, 5 μM); 174.2 ± 16.8 mV in data set [3] (glutamate/malate, 10 μM); 166.8 ± 6.1 mV in data set [3] (succinate, 2.5 μM); 167.1 ± 5.7 mV in data set [3] (succinate, 5 μM); 143.6 ± 11.0 mV in data set [3] (succinate, 10 μM). Besides, the “Lag Phase” value is given as 73.2 ± 8.8 s in data set [3] (glutamate/malate, 2.5 μM); 75.2 ± 12.5 s in data set [3] (glutamate/malate, 5 μM); 47.8 ± 8.7 s in data set [3] (glutamate/malate, 10 μM); 77.8 ± 11.2 s in data set [3] (succinate, 2.5 μM); 83.4 ± 11.5 s in data set [3] (succinate, 5 μM); 62.2 ± 11.2 s in data set [3] (succinate, 10 μM). For the same compound, the “Maximum potential (ΔΨ in - mV)” value worked out at 237.9 ± 5.9 mV in data set [3] (glutamate/malate, 2.5 μM); 227.5 ± 6.5 mV in data set [3] (glutamate/malate, 5 μM); 200.5 ± 16.80 mV in data set [3] (glutamate/malate, 10 μM); 181.9 ± 6.2 mV in data set [3] (succinate, 2.5 μM); 178.3 ± 4.7 mV in data set [3] (succinate, 5 μM); 151.7 ± 9.3 mV in data set [3] (succinate, 10 μM). Moreover, the “Repolarization Potential (ΔΨ in - mV)” value in data set [3] (glutamate/malate, 2.5 μM) came to 233.3 ± 6.5 mV; in data set [3] (glutamate/malate, 5 μM) it was 220.7 ± 6.2 mV; in data set [3] (glutamate/malate, 10 μM), 185.3 ± 20.8 mV; in data set [3] (succinate, 2.5 μM), 177.7 ± 4.5 mV; in data set [3] (succinate, 5 μM) it was 178.1 ± 5.1 mV; in data set [3] (succinate, 10 μM) it was 149.0 ± 11.2 mV.

What is called IC50 is the midpoint of a concentration-inhibition curve. The low end stands for higher potency, the high end for lower potency.
